# Assay results published in patent US20250288704A1, “CXCR4-LIGANDS FOR DIAGNOSTIC AND THERAPEUTIC USE AND PRECURSORS THEREOF” (priority 2021, published 2025).
# Non-standard residues stand in square brackets, D forms with d. Residues, ends and D or L forms follow the SMILES beside them. Groups on a side chain read outwards from the residue. *: point of attachment. DOTA = O=C(O)CN1CCN(CC(=O)O)CCN(CC(=O)*)CCN(CC(=O)O)CC1; dTyr(3-I) = N[C@H](Cc1ccc(O)c(I)c1)C(=O)O; 2Nal = N[C@@H](Cc1ccc2ccccc2c1)C(=O)O; dNMeOrn = CN[C@H](CCCN)C(=O)O; 4Abz = Nc1ccc(C(=O)O)cc1; dDap = NC[C@@H](N)C(=O)O
# Key:
# [1] = Biodistribution in Jurkat tumor-bearing CB-17 SCID mice; format: in vivo; parameters: tissue to tissue ratio at 1 h / tissue to tissue ratio / tissue to tissue ratio at 48 h: reference not given here; conditions: CB-17 SCID, mouse, in vivo, iv, total radioactivity
# How it was run: (§1)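 CB17-SCID mice bore subcutaneous Jurkat xenografts (2-3×10^7 cells in Matrigel, shoulder), used at 5-8 mm tumor diameter. About 0.5-20 MBq (0.02-0.20 nmol) of 125I-, 177Lu-, 99mTc-, 18F- or 68Ga-labeled ligand given by tail vein; organs weighed and γ-counted after set times.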
# [2] = test system: Jurkat tumor-bearing CB-17 SCID mice; test: as above; format: in vivo; parameters: tissue to tissue ratio at 1 h / tissue to tissue ratio / tissue to tissue ratio at 48 h: reference not given here; conditions: for Calculated tumor retention 6 h compared to the 1 h-value / Calculated tumor retention 48 h compared to the 1 h-value: mouse, in vivo
# How it was run: as §1
# [3] = test system: CXCR4-expressing Chem_1 cells; test: Determination of internalization, dual tracer with 125I-Fc-131; format: cell-based; conditions: of total cellular activity
# How it was run: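 Chem_1 cells grown in DMEM-F12 with 10% FBS at 37 °C; wells (n=3 per time point) received medium or AMD3100 (1 mM stock) to block receptors. Unbound, surface-bound and NaOH-lysed internalized fractions were γ-counted; data corrected for non-specific internalization and referred to standard ligand specific internalization.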
structure (smiles),measurement,setting,value
C[C@@H](NC(=O)[C@@H](CCCNC(=N)N)NC(=O)[C@@H](CN)NC(=O)CN1CCN(CC(=O)O)CCN(CC(=O)O)CCN(CC(=O)O)CC1)C(=O)Nc1ccc(C(=O)NCCC[C@@H]2C(=O)N[C@@H](CCCNC(=N)N)C(=O)N[C@@H](Cc3ccc4ccccc4c3)C(=O)NCC(=O)N[C@H](Cc3ccc(O)c(I)c3)C(=O)N2C)cc1 [CXCR4-DOTA-4 [Lu]] (cyclo([dTyr(3-I)][dNMeOrn]([4Abz-dA-dR-dDap-DOTA])R[2Nal]G)),tissue to tissue ratio,[1],156
same,tissue to tissue ratio at 1 h,[1],3.6
same,tissue to tissue ratio at 48 h,[1],362
same,tissue uptake at 1 h,[1]; Tumor activity 1 h p.i.,6.19 %ID/g
same,tissue uptake at 6 h,[1]; Tumor activity 6 h p.i.,7.78 %ID/g
same,tissue uptake at 48 h,[1]; Tumor activity 48 h p.i.,7.23 %ID/g
same,tissue uptake at 1 h,"[1]; female, % iD/g Blood",1.72 %ID/g
same,tissue uptake at 6 h,"[1]; female, % iD/g Blood",0.05 %ID/g
same,tissue uptake at 48 h,"[1]; female, % iD/g Blood",0.02 %ID/g
same,tissue uptake at 1 h,"[1]; female, % iD/g Bone",1.07 %ID/g
same,tissue uptake at 6 h,"[1]; female, % iD/g Bone",0.57 %ID/g
same,tissue uptake at 48 h,"[1]; female, % iD/g Bone",1.47 %ID/g
same,tissue uptake at 1 h,"[1]; female, % iD/g Heart",1.13 %ID/g
same,tissue uptake at 6 h,"[1]; female, % iD/g Heart",0.22 %ID/g
same,tissue uptake at 48 h,"[1]; female, % iD/g Heart",0.21 %ID/g
same,tissue uptake at 1 h,"[1]; female, % iD/g Intestine",0.87 %ID/g
same,tissue uptake at 6 h,"[1]; female, % iD/g Intestine",0.82 %ID/g
same,tissue uptake at 48 h,"[1]; female, % iD/g Intestine",0.28 %ID/g
same,tissue uptake at 1 h,"[1]; female, % iD/g Kidney",14.4 %ID/g
same,tissue uptake at 6 h,"[1]; female, % iD/g Kidney",11.3 %ID/g
same,tissue uptake at 48 h,"[1]; female, % iD/g Kidney",5.31 %ID/g
same,tissue uptake at 1 h,"[1]; female, % iD/g Liver",19.2 %ID/g
same,tissue uptake at 6 h,"[1]; female, % iD/g Liver",20.5 %ID/g
same,tissue uptake at 48 h,"[1]; female, % iD/g Liver",21.7 %ID/g
same,tissue uptake at 1 h,"[1]; female, % iD/g Lung",3.69 %ID/g
same,tissue uptake at 6 h,"[1]; female, % iD/g Lung",0.6 %ID/g
same,tissue uptake at 48 h,"[1]; female, % iD/g Lung",0.47 %ID/g
same,tissue uptake at 1 h,"[1]; female, % iD/g Muscle",0.3 %ID/g
same,tissue uptake at 6 h,"[1]; female, % iD/g Muscle",0.07 %ID/g
same,tissue uptake at 48 h,"[1]; female, % iD/g Muscle",0.05 %ID/g
same,tissue uptake at 1 h,"[1]; female, % iD/g Pancreas",0.52 %ID/g
same,tissue uptake at 6 h,"[1]; female, % iD/g Pancreas",0.16 %ID/g
same,tissue uptake at 48 h,"[1]; female, % iD/g Pancreas",0.24 %ID/g
same,tissue uptake at 1 h,"[1]; female, % iD/g Spleen",4.57 %ID/g
same,tissue uptake at 6 h,"[1]; female, % iD/g Spleen",2.68 %ID/g
same,tissue uptake at 48 h,"[1]; female, % iD/g Spleen",3.63 %ID/g
same,tissue uptake at 1 h,"[1]; female, % iD/g Stomach",1.35 %ID/g
same,tissue uptake at 6 h,"[1]; female, % iD/g Stomach",0.41 %ID/g
same,tissue uptake at 48 h,"[1]; female, % iD/g Stomach",0.23 %ID/g
same,tissue uptake at 1 h,"[1]; female, % iD/g Tumor",6.19 %ID/g
same,tissue uptake at 6 h,"[1]; female, % iD/g Tumor",7.78 %ID/g
same,tissue uptake at 48 h,"[1]; female, % iD/g Tumor",7.23 %ID/g
same,Calculated tumor retention 6 h compared to the 1 h-value,[2],126%
same,Calculated tumor retention 48 h compared to the 1 h-value,[2],117%
C[C@@H](NC(=O)[C@@H](CCCNC(=N)N)NC(=O)[C@@H](CN)NC(=O)CN1CCN(CC(=O)O)CCN(CC(=O)O)CCN(CC(=O)O)CC1)C(=O)Nc1ccc(C(=O)NCCC[C@@H]2C(=O)N[C@@H](CCCNC(=N)N)C(=O)N[C@@H](Cc3ccc4ccccc4c3)C(=O)NCC(=O)N[C@H](Cc3ccc(O)cc3)C(=O)N2C)cc1 [CXCR4-DOTA-3 [Lu]] (cyclo([dY][dNMeOrn]([4Abz-dA-dR-dDap-DOTA])R[2Nal]G)),tissue to tissue ratio,[1],229
same,tissue to tissue ratio at 1 h,[1],9.25
same,tissue to tissue ratio at 48 h,[1],1360
same,tissue uptake at 1 h,[1]; Tumor activity 1 h p.i.,8.42 %ID/g
same,tissue uptake at 6 h,[1]; Tumor activity 6 h p.i.,6.88 %ID/g
same,tissue uptake at 48 h,[1]; Tumor activity 48 h p.i.,5.44 %ID/g
same,tissue uptake at 1 h,"[1]; female, % iD/g Blood",0.91 %ID/g
same,tissue uptake at 6 h,"[1]; female, % iD/g Blood",0.03 %ID/g
same,tissue uptake at 1 h,"[1]; female, % iD/g Bone",0.55 %ID/g
same,tissue uptake at 6 h,"[1]; female, % iD/g Bone",0.28 %ID/g
same,tissue uptake at 48 h,"[1]; female, % iD/g Bone",0.18 %ID/g
same,tissue uptake at 1 h,"[1]; female, % iD/g Heart",0.53 %ID/g
same,tissue uptake at 6 h,"[1]; female, % iD/g Heart",0.09 %ID/g
same,tissue uptake at 48 h,"[1]; female, % iD/g Heart",0.06 %ID/g
same,tissue uptake at 1 h,"[1]; female, % iD/g Intestine",0.44 %ID/g
same,tissue uptake at 6 h,"[1]; female, % iD/g Intestine",0.44 %ID/g
same,tissue uptake at 48 h,"[1]; female, % iD/g Intestine",0.11 %ID/g
same,tissue uptake at 1 h,"[1]; female, % iD/g Kidney",14.1 %ID/g
same,tissue uptake at 6 h,"[1]; female, % iD/g Kidney",13.4 %ID/g
same,tissue uptake at 48 h,"[1]; female, % iD/g Kidney",4.47 %ID/g
same,tissue uptake at 1 h,"[1]; female, % iD/g Liver",8.48 %ID/g
same,tissue uptake at 6 h,"[1]; female, % iD/g Liver",9.43 %ID/g
same,tissue uptake at 48 h,"[1]; female, % iD/g Liver",8.84 %ID/g
same,tissue uptake at 1 h,"[1]; female, % iD/g Lung",1.67 %ID/g
same,tissue uptake at 6 h,"[1]; female, % iD/g Lung",0.25 %ID/g
same,tissue uptake at 48 h,"[1]; female, % iD/g Lung",0.14 %ID/g
same,tissue uptake at 1 h,"[1]; female, % iD/g Muscle",0.18 %ID/g
same,tissue uptake at 6 h,"[1]; female, % iD/g Muscle",0.03 %ID/g
same,tissue uptake at 48 h,"[1]; female, % iD/g Muscle",0.01 %ID/g
same,tissue uptake at 1 h,"[1]; female, % iD/g Pancreas",0.28 %ID/g
same,tissue uptake at 6 h,"[1]; female, % iD/g Pancreas",0.09 %ID/g
same,tissue uptake at 48 h,"[1]; female, % iD/g Pancreas",0.05 %ID/g
same,tissue uptake at 1 h,"[1]; female, % iD/g Spleen",1.55 %ID/g
same,tissue uptake at 6 h,"[1]; female, % iD/g Spleen",1.38 %ID/g
same,tissue uptake at 48 h,"[1]; female, % iD/g Spleen",1.32 %ID/g
same,tissue uptake at 1 h,"[1]; female, % iD/g Stomach",0.94 %ID/g
same,tissue uptake at 6 h,"[1]; female, % iD/g Stomach",0.25 %ID/g
same,tissue uptake at 48 h,"[1]; female, % iD/g Stomach",0.07 %ID/g
same,tissue uptake at 1 h,"[1]; female, % iD/g Tumor",8.42 %ID/g
same,tissue uptake at 6 h,"[1]; female, % iD/g Tumor",6.88 %ID/g
same,tissue uptake at 48 h,"[1]; female, % iD/g Tumor",5.44 %ID/g
same,Calculated tumor retention 6 h compared to the 1 h-value,[2],82%
same,Calculated tumor retention 48 h compared to the 1 h-value,[2],65%
CC[C@H](C)[C@@H]([C@@H](CC(=O)N1CCC[C@H]1[C@H](OC)[C@@H](C)C(=O)N[C@H](C)C(O)c1ccccc1)OC)N(C)C(=O)[C@@H](NC(=O)[C@H](C(C)C)N(C)C(=O)OCc1ccc(NC(=O)[C@H](CCCNC(N)=O)NC(=O)[C@@H](NC(=O)CCCCCN2C(=O)CC(SCC[C@@H](N)C(=O)N[C@H](CCCNC(=N)N)C(=O)N[C@H](C)C(=O)Nc3ccc(C(=O)NCCC[C@@H]4C(=O)N[C@@H](CCCNC(=N)N)C(=O)N[C@@H](Cc5ccc6ccccc6c5)C(=O)NCC(=O)N[C@H](Cc5ccc(O)cc5)C(=O)N4C)cc3)C2=O)C(C)C)cc1)C(C)C (some centres unmarked) [^125I-CXCR4-MMAE −2],Cell-bound [%],[3]; 10 min,1.56 ± 0.78%
same,Internalized [%],[3]; 10 min,2.55 ± 0.34%
same,Cell-bound [%],[3]; 30 min,2.09 ± 0.64%
same,Internalized [%],[3]; 30 min,7.78 ± 0.58%
same,Cell-bound [%],[3]; 60 min,0.73 ± 0.54%
same,Internalized [%],[3]; 60 min,14.6 ± 0.89%
same,Cell-bound [%],[3]; 120 min,0.27 ± 0.35%
same,Internalized [%],[3]; 120 min,27.9 ± 1.14%
same,% iD/g Blood,"[2]; Blood, 1 h p.i., Jurkat xenograft, CB-17 SCID female mice",2.28 % iD/g
same,% iD/g Bone,"[2]; Bone, 1 h p.i., Jurkat xenograft, CB-17 SCID female mice",0.80 % iD/g
same,% iD/g Heart,"[2]; Heart, 1 h p.i., Jurkat xenograft, CB-17 SCID female mice",1.31 % iD/g
same,% iD/g Intestine,"[2]; Intestine, 1 h p.i., Jurkat xenograft, CB-17 SCID female mice",1.13 % iD/g
same,% iD/g Kidney,"[2]; Kidney, 1 h p.i., Jurkat xenograft, CB-17 SCID female mice",18.3 % iD/g
same,% iD/g Liver,"[2]; Liver, 1 h p.i., Jurkat xenograft, CB-17 SCID female mice",27.8 % iD/g
same,% iD/g Lung,"[2]; Lung, 1 h p.i., Jurkat xenograft, CB-17 SCID female mice",3.67 % iD/g
same,% iD/g Muscle,"[2]; Muscle, 1 h p.i., Jurkat xenograft, CB-17 SCID female mice",0.33 % iD/g
same,% iD/g Pancreas,"[2]; Pancreas, 1 h p.i., Jurkat xenograft, CB-17 SCID female mice",0.80 % iD/g
same,% iD/g Spleen,"[2]; Spleen, 1 h p.i., Jurkat xenograft, CB-17 SCID female mice",4.31 % iD/g
same,% iD/g Stomach,"[2]; Stomach, 1 h p.i., Jurkat xenograft, CB-17 SCID female mice",1.85 % iD/g
same,% iD/g Tumor,"[2]; Tumor, 1 h p.i., Jurkat xenograft, CB-17 SCID female mice",2.41 % iD/g
